Measured values as given in patent publication US20070244202A1, “Ampk Activator” (KAO CORPORATION, priority 2004, published 2007).

Columns and labels:
[1] = system: AMPK (AMP-activated protein kinase); experiment: AMPK activation evaluated by phosphorylation of AMPK α and β (Western blot) in mouse hepatocyte line Hepa 1-6; type: cell-based; details: Hepa 1-6 cells
Method: The AMPK activation effect of resveratrol was evaluated on the basis of phosphorylation of AMPK α and β through the below-described method by use of a mouse hepatocyte line (Hepa 1-6). Mouse hepatocyte cells (Hepa 1-6) were seeded in a 25-cm^2 flask, and cultured in DMEM (+10% FBS, +antibacterial agent) at 37° C. for one to two days. The culture medium was removed when the cells became subconfluent, and the cells were washed with PBS (−), followed by replacement with DMEM (−FBS) and further culturing for one day. After the culture medium was removed, DMEM (−FBS) containing a predetermined amount of resveratrol was added, followed by culturing for 60 minutes. Thereafter, the culture medium was removed, and the cells were washed with PBS (−), followed by addition of 200 μL of a cytolytic solution (10 mmol/L Tris (pH 7.4), 50 mmol/L sodium chloride, 30 mmol/L sodium pyrophosphate, 0.5 mass % Triton X-100, protease inhibitor cocktail (SIGMA P2714), phosphatase inhibitor cocktail-2 (SIGMA P5726)). The resultant cell lysate was collected with a cell scraper. The thus-collected cell lysate was thoroughly homogenized by passing it through a syringe using a 23-G needle (3 times), and then the cell lysate was allowed to stand on ice for 30 minutes. […] After the concentration of the supernatant protein was measured, the protein concentration was regulated to a constant level between samples. […] Thereafter, phospho-AMPK was detected by use of anti-phospho-AMPKα (Thr72) antibody (product of Cell Signaling) or anti-phospho-AMPKβ (Ser108) antibody (product of Cell Signaling) serving as a primary antibody, anti-rabbit-HRP antibody (product of Amersham) serving as a secondary antibody, and phototope-HRP Western Detection System (product of Cell Signaling) serving as a detection reagent. The intensity of the thus-detected band was converted into numerical data (pixels) through image analysis (EDAS 290 image analysis system: KODAK), and the degree of AMPK activation was calculated relative to the control (i.e., group containing no sample), which was taken as 100. […]

[2] = system: lipid metabolism activity (β-oxidation activity); experiment: Lipid metabolism activating effect: lipid degradation (β-oxidation) activity of liver and skeletal muscle after oral administration; type: in vivo, mouse
Method: Seven-week-old Balb/c male mice were divided into two groups, and saline (control) or resveratrol (200 mg/kg body weight) was orally administered for 10 consecutive days. Thereafter, the liver and skeletal muscle (gastrocnemius muscle+soleus muscle) were collected from each of the animals. Each of the thus-collected liver and skeletal muscle was homogenized in buffer (250 mM sucrose, 1 mM EDTA in 10 mM HEPES (pH 7.2)), and insoluble tissue residues were centrifugally separated, whereby a supernatant was obtained. The thus-obtained supernatant was subjected to measurement of protein content, and the protein content was regulated to a constant level between samples. Each of the resultant samples was employed for measurement of lipid metabolism activity (β-oxidation activity). The supernatant protein (100 μg) was reacted with 0.1 μCi [^14C]-palmitic acid at 37° C. for 20 minutes in 200 μL (final volume) of buffer (50 mM Tris-HCl (pH 8.0), 40 mM NaCl, 2 mM KCl, 2 mM MgCl2, 1 mM DTT, 5 mM ATP, 0.2 mM L-carnitine, 0.2 mM NAD, 0.06 mM FAD, 0.12 mM CoA, 3 mM α-cyclodextrin). The reaction was stopped with 200 μL of 0.6 N perchloric acid, and then unreacted [^14C]-palmitic acid was removed three times with hexane (1 mL). Lipid degradation activity was evaluated through measurement of the radioactivity of the aqueous layer.
Lipid degradation activity was calculated relative to that of the control, which was taken as 100. […] As is clear from the test results, resveratrol is effective for activation of lipid metabolism.

[3] = system: AMPK (AMP-activated protein kinase); experiment: AMPK activation evaluated by phosphorylation of AMPK α and β (Western blot) in mouse muscle cell line C2C12; type: cell-based
Method: The AMPK activation effect of resveratrol was evaluated on the basis of phosphorylation of AMPK α and β through the below-described method by use of a mouse muscle cell line (C2C12). Mouse muscle cells (C2C12) were seeded in a 25-cm^2 flask, and cultured in DMEM (+10% FBS, +antibacterial agent) at 37° C. for one to two days. The culture medium was removed when the cells reached confluent, and the cells were washed with PBS (−), followed by replacement with DMEM (2 mass % Horse serum) and further culturing for seven to eight days while the culture medium was exchanged every two or three days. Thereafter, the culture medium was removed, and the cells were washed with PBS (−), followed by replacement with DMEM (−FBS) and further culturing for one day. After the culture medium was removed, DMEM (−FBS) containing a predetermined amount of resveratrol was added, followed by culturing for 60 minutes. […] After the concentration of the supernatant protein was measured, the protein concentration was regulated to a constant level between samples. […] Thereafter, phospho-AMPK was detected by use of anti-phospho-AMPKα (Thr72) antibody (product of Cell Signaling) or anti-phospho-AMPKβ (Ser108) antibody (product of Cell Signaling) serving as a primary antibody, anti-rabbit-HRP antibody (product of Amersham) serving as a secondary antibody, and phototope-HRP Western Detection System (product of Cell Signaling) serving as a detection reagent. The intensity of the thus-detected band was converted into numerical data (pixels) through image analysis (EDAS 290 image analysis system: KODAK), and the degree of AMPK activation was calculated relative to the control (i.e., group containing no sample), which was taken as 100. […]

[4] = system: C57BL/6 male mice; experiment: Efficacy of resveratrol in mice fed a high-fat diet for 24 weeks (body, fat and liver weight, blood analysis); type: in vivo, mouse
Method: Seven-week-old C57BL/6 male mice (CLEA Japan, Inc.) were employed, and the animals were divided into three groups, each containing 10 to 15 animals. Twenty-four weeks after initiation of the test, body weight was measured, and blood was collected under anesthesia and non-fasting conditions for measurement of plasma glucose, cholesterol, insulin, and leptin. In addition, visceral fat weight (epididymal fat, retroperitoneal fat, and perirenal fat) and liver weight were measured. In Example 3, resveratrol manufactured by Cayman was employed. [table]

[5] = 0.2% resveratrol in high-fat diet vs high-fat diet, P<0.01
[6] = 0.2% resveratrol in high-fat diet vs high-fat diet, P<0.05

In the case of `Oc1ccc(/C=C/c2cc(O)cc(O)c2)cc1` [Resveratrol, 3,4′,5-trihydroxy-trans-stilbene], the “Phospho-AMPKα (degree of AMPK activation relative to control taken as 100)” value ([1]; resveratrol 150 μmol/L, 60 minutes, anti-phospho-AMPKα (Thr72) antibody, control = 100) is reported as 538, the “Phospho-AMPKβ (degree of AMPK activation relative to control taken as 100)” value ([1]; resveratrol 150 μmol/L, 60 minutes, anti-phospho-AMPKβ (Ser108) antibody, control = 100) is reported as 168 and the “AMPK activation effect (in words)” value ([1]; summary of Table 1) is reported as “potent AMPK activation effect”. The “Lipid degradation activity (β-oxidation activity) of skeletal muscle relative to control taken as 100” value ([2]; Balb/c male mice, resveratrol 200 mg/kg body weight orally for 10 consecutive days, gastrocnemius + soleus muscle homogenate, [14C]-palmitic acid, control = 100) was 243, the “Lipid degradation activity (β-oxidation activity) of liver relative to control taken as 100” value ([2]; Balb/c male mice, resveratrol 200 mg/kg body weight orally for 10 consecutive days, liver homogenate, [14C]-palmitic acid, control = 100) was 323 and the “Lipid degradation activity (β-oxidation activity) of the liver and skeletal muscle (in words)” value ([2]; resveratrol 200 mg/kg orally for 10 days vs saline control, liver p<0.001, muscle p<0.001) was “considerably increases”. The “Phospho-AMPKα (degree of AMPK activation relative to control taken as 100)” value ([3]; C2C12 cells, resveratrol 150 μmol/L, 60 minutes, anti-phospho-AMPKα (Thr72) antibody, control = 100) was 848, the “Phospho-AMPKβ (degree of AMPK activation relative to control taken as 100)” value ([3]; C2C12 cells, resveratrol 150 μmol/L, 60 minutes, anti-phospho-AMPKβ (Ser108) antibody, control = 100) was 425 and the “AMPK activation effect in muscle cells (in words)” value ([3]; summary of Table 2) was “potent AMPK activation effect”. The “Blood insulin level, group 3 compared with group 2 (in words)” value ([4]; 0.2% resveratrol in high-fat diet vs high-fat diet) was “lower than that in group 2”, the “Body weight, group 3 compared with group 2 (in words)” value ([4]; 0.2% resveratrol in high-fat diet vs high-fat diet, P<0.001) was “significantly lower than that in group 2” and the “Blood leptin level, group 3 compared with group 2 (in words)” value [4, 5] was “significantly lower than that in group 2”. For the same compound, the “Visceral fat weight, group 3 compared with group 2 (in words)” value [4, 5] was “significantly lower than that in group 2”, the “Liver weight, group 3 compared with group 2 (in words)” value [4, 6] was “significantly lower than that in group 2” and the “Total cholesterol level, group 3 compared with group 2 (in words)” value [4, 6] was “significantly lower than that in group 2”. For the same compound, the “Blood glucose level, group 3 compared with group 2 (in words)” value ([4]; 0.2% resveratrol in high-fat diet vs high-fat diet, P<0.1) was “lower than that in group 2”, the Visceral fat weight ([4]; Group 3: high-fat diet with 0.2% resveratrol, epididymal, retroperitoneal and perirenal fat, group 1 0.88, group 2 2.17) was 1.00 g and the Liver weight ([4]; Group 3: high-fat diet with 0.2% resveratrol, group 1 1.34, group 2 1.62) was 1.39 g. The Body weight ([4]; Group 3: high-fat diet with 0.2% resveratrol, group 1 (low-fat) 32.2, group 2 (high-fat) 38.8) was 32.1 g, the Leptin ([4]; Group 3: high-fat diet with 0.2% resveratrol, plasma, non-fasting, group 1 1.43, group 2 6.19) was 1.79 ng/mL and the Insulin ([4]; Group 3: high-fat diet with 0.2% resveratrol, plasma, non-fasting, group 1 2.52, group 2 3.38) was 2.03 ng/mL. It also gave a Total cholesterol ([4]; Group 3: high-fat diet with 0.2% resveratrol, plasma, non-fasting, group 1 58, group 2 76) of 60 mg/dL and a Glucose ([4]; Group 3: high-fat diet with 0.2% resveratrol, plasma, non-fasting, group 1 133, group 2 191) of 162 mg/dL.
